Target: PD-1/PD-L1 (Homo sapiens (Human), UniProt Q9NZQ7)
Test: PD-1/PD-L1 Homogeneous Time-Resolved Fluorescence (HTRF) Binding Assay
Conditions: recombinant human PD-1 (3 nM) and PD-L1 (10 nM), 25° C., PBS pH 7.4
Summary of the method: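 Fc-tagged human PD-1 (25-167, 3 nM) and His-tagged PD-L1 (19-238, 10 nM) preincubated with inhibitor 40 min in PBS pH 7.4, 0.05% Tween-20, 0.1% BSA, 1% DMSO, 25 °C. Binding detected by HTRF (Eu anti-IgG/APC anti-His, 665/620 nm) after 60 min; IC50 from percent control activity.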

Chain of PD-1/PD-L1 (Q9NZQ7 19-238): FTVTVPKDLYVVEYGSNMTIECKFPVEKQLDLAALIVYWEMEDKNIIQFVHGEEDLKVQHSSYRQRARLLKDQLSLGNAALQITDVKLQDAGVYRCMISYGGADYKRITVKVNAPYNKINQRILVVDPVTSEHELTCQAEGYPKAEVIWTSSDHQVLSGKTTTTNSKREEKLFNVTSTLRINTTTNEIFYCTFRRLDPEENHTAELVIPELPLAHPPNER

Row | IC50 | SMILES
1 | ≤ 10 nM | Cc1c(Nc2nccc3cc(CN4CC[C@@H](O)C4)cnc23)cccc1-c1cccc(-c2nc3cc(CN[C@H]4CC[C@H](C(=O)O)C4)cc(C#N)c3o2)c1C [Example 182, (1S,3S)-3-((7-cyano-2-(3′-(3-(((R)-3-hydroxypyrrolidin-1-yl)methyl)-1,7-naphthyridin-8-ylamino)-2,2′-dimethylbiphenyl-3-yl)benzo [d]oxazol-5-yl)methylamino)cyclopentane carboxylic acid]
2 | ≤ 10 nM | Cc1c(Nc2nccc3cc(CN4CC[C@@H](O)C4)cnc23)cccc1-c1cccc(-c2nc3cc(CNC45CCC(C(=O)O)(CC4)C5)cc(C#N)c3o2)c1C [Example 183, (R)-4-((7-cyano-2-(3′-(3-((3-hydroxypyrrolidin-1-yl)methyl)-1,7-naphthyridin-8-ylamino)-2,2′-dimethylbiphenyl-3-yl)benzo [d]oxazol-5-yl)methylamino)bicyclo[2.2.1]heptane-1-carboxylic acid]
3 | ≤ 10 nM | Cc1c(Nc2nccc3cc(CN4CC[C@@H](O)C4)cnc23)cccc1-c1cccc(-c2nc3cc(CN[C@H]4CC[C@H](CC(=O)O)CC4)cc(C#N)c3o2)c1C [Example 184, 2-(trans-4-((7-cyano-2-(3′-(3-(((R)-3-hydroxypyrrolidin-1-yl)methyl)-1,7-naphthyridin-8-ylamino)-2,2′-dimethylbiphenyl-3-yl)benzo[d]oxazol-5-yl)methylamino)cyclohexyl)acetic acid]
4 | ≤ 10 nM | COCC1(C(=O)O)CCN(Cc2cc(C#N)c3oc(-c4cccc(-c5cccc(Nc6nccc7cc(CN8CC[C@@H](O)C8)cnc67)c5C)c4C)nc3c2)C1 (stereo partly drawn) [Example 185, 1-((7-cyano-2-(3′-(3-(((R)-3-hydroxypyrrolidin-1-yl)methyl)-1,7-naphthyridin-8-ylamino)-2,2′-dimethylbiphenyl-3-yl)benzo[d]oxazol-5-yl)methyl)-3-(methoxymethyl)pyrrolidine-3-carboxylic acid]
5 | ≤ 10 nM | Cc1c(Nc2nccc3cc(CN4CC[C@@H](O)C4)cnc23)cccc1-c1cccc(-c2nc3cc(CN4CCC(C(=O)O)CC4)cc(C#N)c3o2)c1C [Example 186, (R)-1-((7-cyano-2-(3′-(3-((3-hydroxypyrrolidin-1-yl)methyl)-1,7-naphthyridin-8-ylamino)-2.2′-dimethylbiphenyl-3-yl)benzo [d]oxazol-5-yl)methyl)piperidine-4-carboxylic acid]
6 | ≤ 10 nM | Cc1c(-c2nc3cc(CN4CC[C@@](C)(C(=O)O)C4)cc(C#N)c3o2)cccc1-c1cccc(Nc2nccc3cc(CN4CC[C@@H](O)C4)cnc23)c1Cl [Example 187, (R)-1-((2-(2′-chloro-3′-(3-(((R)-3-hydroxypyrrolidin-1-yl)methyl)-1,7-naphthyridin-8-ylamino)-2-methylbiphenyl-3-yl)-7-cyanobenzo[d]oxazol-5-yl)methyl)-3-methylpyrrolidine-3-carboxylic acid]
7 | ≤ 10 nM | Cc1c(-c2nc3cc(CN4CCC(C(=O)O)CC4)cc(C#N)c3o2)cccc1-c1cccc(Nc2nccc3cc(CN4CC[C@@H](O)C4)cnc23)c1Cl [Example 188, (R)-1-((2-(2′-chloro-3′-(3-((3-hydroxypyrrolidin-1-yl)methyl)-1,7-naphthyridin-8-ylamino)-2-methylbiphenyl-3-yl)-7-cyanobenzo[d]oxazol-5-yl)methyl) piperidine-4-carboxylic acid]
8 | ≤ 10 nM | Cc1c(Nc2nccc3cc(CNCCO)cnc23)cccc1-c1cccc(-c2nc3cc(CN4CC[C@@](C)(C(=O)O)C4)cc(C#N)c3o2)c1C [Example 189, (R)-1-((7-cyano-2-(3′-(3-((2-hydroxyethylamino)methyl)-1,7-naphthyridin-8-ylamino)-2,2′-dimethylbiphenyl-3-yl)benzo[d]oxazol-5-yl)methyl)-3-methylpyrrolidine-3-carboxylic acid]
9 | ≤ 10 nM | Cc1c(Nc2nccc3cc(CN(C)CCO)cnc23)cccc1-c1cccc(-c2nc3cc(CN4CC[C@@](C)(C(=O)O)C4)cc(C#N)c3o2)c1C [Example 190, (R)-1-((7-cyano-2-(3′-(3-(((2-hydroxyethyl)(methyl)amino)methyl)-1,7-naphthyridin-8-ylamino)-2,2′-dimethylbiphenyl-3-yl)benzo[d]oxazol-5-yl)methyl)-3-methylpyrrolidine-3-carboxylic acid]
10 | ≤ 10 nM | Cc1c(Nc2nccc3cc(CNC[C@H](C)O)cnc23)cccc1-c1cccc(-c2nc3cc(CN4CC[C@@](C)(C(=O)O)C4)cc(C#N)c3o2)c1C [Example 191, (R)-1-((7-cyano-2-(3′-(3-(((S)-2-hydroxypropylamino)methyl)-1,7-naphthyridin-8-ylamino)-2,2′-dimethylbiphenyl-3-yl)benzo[d]oxazol-5-yl)methyl)-3-methylpyrrolidine-3-carboxylic acid]
11 | ≤ 10 nM | Cc1c(Nc2nccc3cc(CNC[C@@H](C)O)cnc23)cccc1-c1cccc(-c2nc3cc(CN4CC[C@@](C)(C(=O)O)C4)cc(C#N)c3o2)c1C [Example 192, (R)-1-((7-cyano-2-(3′-(3-(((R)-2-hydroxypropylamino)methyl)-1,7-naphtyridin-8-ylamino)-2,2′-dimethylbiphenyl-3-yl)benzo[d]oxazol-5-yl)methyl)-3-methylpyrrolidine-3-carboxylic acid]
12 | ≤ 10 nM | Cc1c(Nc2nccc3cc(CN4CCCC4)cnc23)cccc1-c1cccc(-c2nc3cc(CN4CC[C@@](C)(C(=O)O)C4)cc(C#N)c3o2)c1C [Example 193, (R)-1-((7-cyano-2-(2,2′-dimethyl-3′-(3-(pyrrolidin-1-ylmethyl)-1,7-naphthyridin-8-ylamino)biphenyl-3-yl)benzo[d]oxazol-5-yl)methyl)-3-methylpyrrolidine-3-carboxylic acid]
13 | ≤ 10 nM | CC[C@@H](CO)NCc1cnc2c(Nc3cccc(-c4cccc(-c5nc6cc(CN7CC[C@@](C)(C(=O)O)C7)cc(C#N)c6o5)c4C)c3C)nccc2c1 [Example 194, (R)-1-((7-cyano-2-(3′-(3-(((S)-1-hydroxybutan-2-ylamino)methyl)-1,7-naphthyridin-8-ylamino)-2,2′-dimethylbiphenyl-3-yl)benzo[d]oxazol-5-yl)methyl)-3-methylpyrrolidine-3-carboxylic acid]
14 | ≤ 10 nM | Cc1c(Nc2nccc3cc(CN[C@@H](C)CO)cnc23)cccc1-c1cccc(-c2nc3cc(CN4CC[C@@](C)(C(=O)O)C4)cc(C#N)c3o2)c1C [Example 195, (R)-1-((7-cyano-2-(3′-(3-(((S)-1-hydroxypropan-2-ylamino)methyl)-1,7-naphthyridin-8-ylamino)-2,2′-dimethylbiphenyl-3-yl)benzo[d]oxazol-5-yl)methyl)-3-methylpyrrolidine-3-carboxylic acid]
15 | ≤ 10 nM | Cc1c(Nc2nccc3cc(CN[C@H](C)CO)cnc23)cccc1-c1cccc(-c2nc3cc(CN4CC[C@@](C)(C(=O)O)C4)cc(C#N)c3o2)c1C [Example 196, (R)-1-((7-cyano-2-(3′-(3-(((R)-1-hydroxypropan-2-ylamino)methyl)-1,7-naphthyridin-8-ylamino)-2,2′-dimethylbiphenyl-3-yl)benzo[d]oxazol-5-yl)methyl)-3-methylpyrrolidine-3-carboxylic acid]
16 | ≤ 10 nM | CNCc1cnc2c(Nc3cccc(-c4cccc(-c5nc6cc(CN7CC[C@@](C)(C(=O)O)C7)cc(C#N)c6o5)c4C)c3C)nccc2c1 [Example 197, (R)-1-((7-cyano-2-(2,2′-dimethyl-3′-(3-((methylamino)methyl)-1,7-naphthyridin-8-ylamino)biphenyl-3-yl)benzo[d]oxazol-5-yl)methyl)-3-methylpyrrolidine-3-carboxylic acid]
17 | ≤ 10 nM | Cc1c(Nc2nccc3cc(CNC(C)(C)CO)cnc23)cccc1-c1cccc(-c2nc3cc(CN4CC[C@@](C)(C(=O)O)C4)cc(C#N)c3o2)c1C [Example 198, (R)-1-((7-cyano-2-(3′-(3-((1-hydroxy-2-methylpropan-2-ylamino)methyl)-1,7-naphthyridin-8-ylamino)-2,2′-dimethylbiphenyl-3-yl)benzo[d]oxazol-5-yl)methyl)-3-methylpyrrolidine-3-carboxylic acid]
18 | ≤ 10 nM | Cc1c(Nc2nccc3cc(CNCC4(O)CC4)cnc23)cccc1-c1cccc(-c2nc3cc(CN4CC[C@@](C)(C(=O)O)C4)cc(C#N)c3o2)c1C [Example 199, (R)-1-((7-cyano-2-(3′-(3-(((1-hydroxycyclopropyl)methylamino)methyl)-1,7-naphthyridin-8-ylamino)-2,2′-dimethylbiphenyl-3-yl)benzo[d]oxazol-5-yl)methyl)-3-methylpyrrolidine-3-carboxylic acid]
19 | ≤ 10 nM | Cc1c(Nc2nccc3cc(CN4CC[C@](C)(O)C4)cnc23)cccc1-c1cccc(-c2nc3cc(CN4CC[C@@](C)(C(=O)O)C4)cc(C#N)c3o2)c1C [Example 200, (R)-1-((7-cyano-2-(3′-(3-(((S)-3-hydroxy-3-methylpyrrolidin-1-yl)methyl)-1,7-naphthyridin-8-ylamino)-2,2′-dimethylbiphenyl-3-yl)benzo[d]oxazol-5-yl)methyl)-3-methylpyrrolidine-3-carboxylic acid]
20 | ≤ 10 nM | Cc1c(Nc2nccc3cc(CN[C@@H](C)CO)cnc23)cccc1-c1cccc(-c2nc3cc(CN4CCC(C(=O)O)CC4)cc(C#N)c3o2)c1C [Example 201, (S)-1-((7-cyano-2-(3′-(3-((1-hydroxypropan-2-ylamino)methyl)-1,7-naphthyridin-8-ylamino)-2,2′-dimethylbiphenyl-3-yl)benzo[d]oxazol-5-yl)methyl)piperidine-4-carboxylic acid]
21 | ≤ 10 nM | Cc1c(Nc2nccc3cc(CN[C@H](C)CO)cnc23)cccc1-c1cccc(-c2nc3cc(CN4CCC(C(=O)O)CC4)cc(C#N)c3o2)c1C [Example 202, (R)-1-((7-cyano-2-(3′-(3-((1-hydroxypropan-2-ylamino)methyl)-1,7-naphthyridin-8-ylamino)-2,2′-dimethylbiphenyl-3-yl)benzo[d]oxazol-5-yl)methyl)piperidine-4-carboxylic acid]

From US10308644B2, “Heterocyclic compounds as immunomodulators” (Incyte Corporation, priority 2016, dated 2019)
